Data on 16 compounds can be found in patent US20250388605A1, “HETEROBIFUNCTIONAL COMPOUNDS AND METHODS OF TREATING DISEASE” (Halda Therapeutics OpCo, Inc., priority 2022, published 2025).

Assay [1] relates to T-Rex 293 cell line SC3 cells having increased expression of androgen receptor protein due to exposure to doxycycline. Description: Cellular growth inhibition, T-Rex 293 SC3 cells with doxycycline (increased androgen receptor expression), CellTiter-Glo. The class given is cell-based. As to conditions: T-Rex 293 SC3 cells with 10 ng/mL doxycycline (increased androgen receptor expression), 72 hours, CellTiter-Glo 2.0. As to the method:
(§1) The following types of cells were prepared for this experiment: (i) a T-Rex 293 cell line having increased expression of androgen receptor protein due to exposure to doxycycline and (ii) a T-Rex 293 cell line lacking increased expression of androgen receptor protein. Ability of the test compounds to inhibit proliferation of the foregoing cell types was evaluated according to the procedures set forth below.
(§2) The doxycycline-inducible androgen receptor protein expressing cell line was established using the following protocol: T-Rex 293 cells were purchased from Invitrogen (Cat #R71007) and transfected using Lipofectamine 2000 with the wild-type androgen receptor protein sequence cloned into the pcDNA4/TO vector. Transfected cells were selected using 400 μg/mL Zeocin (Invitrogen Cat #R25001). Following selection, single clones were raised and maintained in Dulbecco's Modified Eagle Medium (DMEM) supplemented with 10% w/w Tetracycline-free fetal bovine serum (FBS) and 250 μg/mL Zeocin. Clones were analyzed for expression of androgen receptor protein in the presence and absence of 10 ng/mL doxycycline (Sigma Cat #D9891), and a single doxycycline-inducible clone (hereinafter “SC3”) was selected for use in downstream assays.
(§3) The SC3 cells were seeded on poly-D-lysine coated, black clear-bottom 384-well plates at 2500/well, in 25 μL Phenol Red Free Dulbecco's Modified Eagle Medium (DMEM) supplemented with 10% w/w charcoal-dextran treated fetal bovine serum (FBS) and 1% w/w pen-strep, with or without 10 ng/mL doxycycline. Pen-Strep is a commercially available mixture of penicillin G and streptomycin, which is used in mammalian cell culture media to prevent bacterial contamination. Phenol Red Free Dulbecco's Modified Eagle Medium (DMEM) supplemented with 10% w/w charcoal-dextran treated fetal bovine serum (FBS) and 1% w/w pen-strep, with or without 10 ng/mL doxycycline is herein referred to as Treatment Medium. Following seeding of cells in the plates, the plates were spun at 300×g for 30 seconds, then equilibrated to room temperature for 30 minutes, and then deposited in a humidified tissue culture incubator maintained at 37° C. with 5% CO2.
(§4) At 24 hours after seeding of the cells, dilutions of test compound were prepared in DMSO and dissolved in Treatment Medium, to achieve a final DMSO concentration of 0.5% w/w, thereby providing the Test Compound Solution. A 25 μL aliquot of the Test Compound Solution was added to cells in the well plates. An equal volume of a solution containing DMSO and Treatment Medium was used as a negative control. Following treatment of cells with Test Compound Solution or said equal volume of a solution containing DMSO and Treatment Medium, the plates were spun at 300×g for 30 seconds, and then left in an incubator for 72 hours.
(§5) At the end of the treatment duration, cell viability was quantified with CellTiter-Glo 2.0 reagent (Promega Cat #G9243). For this purpose, plates were equilibrated to room temperature for 30 minutes, and then 25 μL of CellTiter-Glo 2.0 reagent was added to cells in the plate wells. Plates were then agitated on a shaker for two minutes at 500 rpm and subsequently incubated at room temperature for 10 minutes. Following incubation, the plates were spun at 3000×g for 30 seconds, then sealed with an optical adhesive cover, and luminescence readings were measured with an EnVision Plate Reader.
(§6) Data was normalized using zero luminescence for baseline. A four-parameter non-linear regression curve fit was applied to dose-response data in GraphPad Prism data analysis software to determine the half-maximal growth inhibitory concentration (GI50) for each test compound.
(In general: In ATP-based viability assays light output follows the ATP content of the culture.)

The test system of assay [2] is T-Rex 293 cell line SC3 cells lacking increased expression of androgen receptor protein. Description: Cellular growth inhibition, T-Rex 293 SC3 cells without doxycycline (no increased androgen receptor expression), CellTiter-Glo. The format is cell-based. As to conditions: T-Rex 293 SC3 cells not exposed to doxycycline (no increased androgen receptor expression), 72 hours. As to the method: as §1, §2, §3, §4, §5, §6

The next assay relates to VCaP cells. Description: Cellular growth inhibition assay for VCaP cells, CellTiter-Glo. The format is cell-based, human. The conditions noted are these: 72 hours. The procedure: VCaP cells were purchased from American Type Cell Culture (ATCC Cat #CRL2876) and then seeded on poly-D-lysine coated, black clear-bottom 384-well plates at 5000/well in 25 μL Dulbecco's Modified Eagle Medium (DMEM) supplemented with 10% w/w Fetal bovine serum (FBS) and 1% w/w Pen-Strep. Pen-Strep is a commercially available mixture of penicillin G and streptomycin, which is used in mammalian cell culture media to prevent bacterial contamination. Dulbecco's Modified Eagle Medium (DMEM) supplemented with 10% w/w fetal bovine serum (FBS) and 1% w/w Pen-Strep is herein referred to as Treatment Medium. Following seeding of cells in the plates, the plates were spun at 300×g for 30 seconds, then equilibrated to room temperature for 30 minutes, and then deposited in a humidified tissue culture incubator maintained at 37° C. with 5% CO2.
as §4, §5, §6

Broadly, the GI50 is the concentration that inhibits growth by half. Low readings indicate more potent growth inhibition, high ones less potent growth inhibition. Take `CCS(=O)(=O)c1ccc(Oc2cccc(OCCOC3CCN(c4ncc(C(=O)N[C@H]5C(C)(C)[C@H](Oc6ccc(C#N)c(Cl)c6)C5(C)C)cn4)CC3)c2)c(-c2cn(C)c(=O)c3[nH]ccc23)c1` [Compound I-55, N-((1r, 3r)-3-(3-chloro-4-cyanophenoxy)-2,2,4,4-tetramethylcyclobutyl)-2-(4-(2-(3-(4-(ethylsulfonyl)-2-(6-methyl-7-oxo-6,7-dihydro-1H-pyrrolo[2,3-c]pyridin-4-yl)phenoxy)phenoxy)ethoxy)piperidin-1-yl)pyrimidine-5-carboxamide]: the GI50 (in assay [1]; in assay [2]; in the assay with VCaP cells (Homo sapiens)) was less than 500 nM each time.

In the case of `CCC(=O)Nc1ccc(Oc2cccc(OCCOC3CCN(c4ncc(C(=O)N[C@H]5C(C)(C)[C@H](Oc6ccc(C#N)c(Cl)c6)C5(C)C)cn4)CC3)c2)c(-c2cn(C)c(=O)c3[nH]ccc23)c1` [Compound I-59, N-((1r, 3r)-3-(3-chloro-4-cyanophenoxy)-2,2,4,4-tetramethylcyclobutyl)-2-(4-(2-(3-(2-(6-methyl-7-oxo-6,7-dihydro-1H-pyrrolo[2,3-c]pyridin-4-yl)-4-propionamidophenoxy)phenoxy)ethoxy)piperidin-1-yl)pyrimidine-5-carboxamide], the GI50 was less than 500 nM in assay [1], more than 3000 nM in assay [2] and more than 3000 nM in the assay on VCaP cells (Homo sapiens).

Consider `CCC(=O)N(C)c1ccc(Oc2cccc(OCCOC3CCN(c4ncc(C(=O)N[C@H]5C(C)(C)[C@H](Oc6ccc(C#N)c(Cl)c6)C5(C)C)cn4)CC3)c2)c(-c2cn(C)c(=O)c3[nH]ccc23)c1` [Compound I-60], for which the GI50 is less than 500 nM in assay [1], more than 3000 nM in assay [2] and less than 500 nM in the assay on VCaP cells (Homo sapiens).

With `CCS(=O)(=O)Nc1ccc(Oc2cccc(C(=O)N(C)CCOC3CCN(c4ncc(C(=O)N[C@H]5C(C)(C)[C@H](Oc6ccc(C#N)c(Cl)c6)C5(C)C)cn4)CC3)c2)c(-c2cn(C)c(=O)c3[nH]ccc23)c1` [Compound I-66, N-((1r, 3r)-3-(3-chloro-4-cyanophenoxy)-2,2,4,4-tetramethylcyclobutyl)-2-(4-(2-(3-(4-(ethylsulfonamido)-2-(6-methyl-7-oxo-6,7-dihydro-1H-pyrrolo[2,3-c]pyridin-4-yl)phenoxy)-N-methylbenzamido)ethoxy)piperidin-1-yl)pyrimidine-5-carboxamide], the values for the GI50 (in assay [1]; in assay [2]; with VCaP cells (Homo sapiens)) were less than 500 nM, more than 3000 nM and less than 500 nM, respectively.

For the compound `CCS(=O)(=O)Nc1ccc(Oc2cccc(OCCN3CCN(c4ncc(C(=O)N[C@H]5C(C)(C)[C@H](Oc6ccc(C#N)c(Cl)c6)C5(C)C)cn4)CC3)c2)c(-c2cn(C)c(=O)c3[nH]ccc23)c1` [Compound I-77], the 50% growth inhibitory concentration (GI50) (in assay [1]; in assay [2]; in the assay on VCaP cells (Homo sapiens)) was less than 500 nM in each case.

As to `CCS(=O)(=O)Nc1ccc(Oc2cccc(OCCNC3CCN(c4ncc(C(=O)N[C@H]5C(C)(C)[C@H](Oc6ccc(C#N)c(Cl)c6)C5(C)C)cn4)CC3)c2)c(-c2cn(C)c(=O)c3[nH]ccc23)c1` [Compound I-85], the results for the GI50 (in assay [1]; in assay [2]; in the assay on VCaP cells (Homo sapiens)) were less than 500 nM, 500 to 1500 nM and less than 500 nM, respectively.

For the compound `CCS(=O)(=O)Nc1ccc(Oc2cccc(N(C)CCN(C)C3CCN(c4ncc(C(=O)N[C@H]5C(C)(C)[C@H](Oc6ccc(C#N)c(Cl)c6)C5(C)C)cn4)CC3)c2)c(-c2cn(C)c(=O)c3[nH]ccc23)c1` [Compound I-86], the GI50 (in assay [1]; in assay [2]; in the assay on VCaP cells (Homo sapiens)) was less than 500 nM each time.

In the case of `CCS(=O)(=O)Nc1ccc(Oc2cccc(OCCN(C)C3CCN(c4ncc(C(=O)N[C@H]5C(C)(C)[C@H](Oc6ccc(C#N)c(Cl)c6)C5(C)C)cn4)CC3)c2)c(-c2cn(C)c(=O)c3[nH]ccc23)c1` [Compound I-87], the concentration for 50% growth inhibition (GI50) (in assay [1]; in assay [2]; in the assay with VCaP cells (Homo sapiens)) was less than 500 nM each time.

Turning to `CCS(=O)(=O)Nc1ccc(Oc2cc(OCCOC3CCN(c4ncc(C(=O)N[C@H]5C(C)(C)[C@H](Oc6ccc(C#N)c(Cl)c6)C5(C)C)cn4)CC3)ccn2)c(-c2cn(C)c(=O)c3[nH]ccc23)c1` [Compound I-111], the GI50 in assay [1] is less than 500 nM; in assay [2] it was more than 3000 nM; in the assay with VCaP cells (Homo sapiens), less than 500 nM.

On to `CCS(=O)(=O)Nc1ccc(-n2ccc(OCCOC3CCN(c4ncc(C(=O)NC5C(C)(C)C(Oc6ccc(C#N)c(Cl)c6)C5(C)C)cn4)CC3)cc2=O)c(-c2cn(C)c(=O)c3[nH]ccc23)c1` (stereo not drawn) [Compound I-112, N-[3-(3-chloro-4-cyano-phenoxy)-2,2,4,4-tetramethyl-cyclobutyl]-2-[4-[2-[[1-[4-(ethylsulfonylamino)-2-(6-methyl-7-oxo-1H-pyrrolo[2,3-c]pyridin-4-yl)phenyl]-2-oxo-4-pyridyl]oxy]ethoxy]-1-piperidyl]pyrimidine-5-carboxamide], for which the 50% growth inhibitory concentration (GI50) in assay [1] is less than 500 nM; in assay [2], more than 3000 nM; in the assay on VCaP cells (Homo sapiens), more than 3000 nM.

Take `CCS(=O)(=O)Nc1ccc(Oc2cccc(N(C)CCOC3CCN(c4ncc(C(=O)N[C@H]5C(C)(C)[C@H](Oc6ccc(C#N)c(Cl)c6)C5(C)C)cn4)CC3)c2)c(-c2cn(C)c(=O)c3[nH]ccc23)c1` [Compound I-113]: the GI50 (in assay [1]; in assay [2]; in the assay with VCaP cells (Homo sapiens)) was less than 500 nM in each case.

On to `CCS(=O)(=O)Nc1ccc(Oc2cc(F)cc(OCCOC3CCN(c4ncc(C(=O)N[C@H]5C(C)(C)[C@H](Oc6ccc(C#N)c(Cl)c6)C5(C)C)cn4)CC3)c2)c(-c2cn(C)c(=O)c3[nH]ccc23)c1` [Compound I-127], for which the results for the GI50 (in assay [1]; in assay [2]; in the assay with VCaP cells (Homo sapiens)) were less than 500 nM, more than 3000 nM and less than 500 nM, respectively.

For the compound `CCS(=O)(=O)Nc1ccc(Oc2ccc(F)c(OCCOC3CCN(c4ncc(C(=O)N[C@H]5C(C)(C)[C@H](Oc6ccc(C#N)c(Cl)c6)C5(C)C)cn4)CC3)c2)c(-c2cn(C)c(=O)c3[nH]ccc23)c1` [Compound I-128], the values for the GI50 (in assay [1]; in assay [2]; with VCaP cells (Homo sapiens)) were less than 500 nM, more than 3000 nM and less than 500 nM, respectively.

As to `Cn1cc(-c2cc(NS(=O)(=O)C3CC3)ccc2Oc2cccc(OCCC3CCN(c4ncc(C(=O)N[C@H]5C(C)(C)[C@H](Oc6ccc(C#N)c(Cl)c6)C5(C)C)cn4)CC3)c2)c2cc[nH]c2c1=O` [Compound I-130], the concentration for 50% growth inhibition (GI50) in assay [1] is less than 500 nM; in assay [2], more than 3000 nM; in the assay with VCaP cells, less than 500 nM.

Consider `CC(C)c1ccc(Oc2cccc(OCCC3CCN(c4ncc(C(=O)N[C@H]5C(C)(C)[C@H](Oc6ccc(C#N)c(Cl)c6)C5(C)C)cn4)CC3)c2F)c(-c2cn(C)c(=O)c3[nH]ccc23)c1` [Compound I-132], for which the GI50 (in assay [1]; in assay [2]; in the assay on VCaP cells) was more than 3000 nM each time.

Turning to `Cn1cc(-c2cc(NS(=O)(=O)C3CC3)ccc2Oc2cccc(CCCN3CCN(c4ncc(C(=O)N[C@H]5C(C)(C)[C@H](Oc6ccc(C#N)c(Cl)c6)C5(C)C)cn4)CC3)c2F)c2cc[nH]c2c1=O` [Compound I-135], the GI50 in assay [1] is less than 500 nM; in assay [2], more than 3000 nM; in the assay on VCaP cells, less than 500 nM.
